Results taken from patent publication EP1978972B1, “USE OF ALKYLGLUCOSIDE ESTERS AS BETA-DEFENSIN INDUCERS” (Pierre Fabre Dermo-Cosmétique, priority 2006, dated 2007).

System: hBD-2
Type: cell-based, human
Conditions: skin explant, systemic
From the text: Il est connu de WO 97/45101 que les esters d'α-alkylglucoside peuvent être utilisés comme agent anti-microbien et/ou anti-fongique pour agir en tant que conservateur dans une composition, pour la préserver d'un développement microbien. D'autre part, les propriétés moussantes des esters de méthyl glucose sont décrites dans Desai et al (« Sofw Journal Seife, Oele, Fette, Wachse, Verlag für chemische Industrie » 1991). • Modèle cellulaire : lignée cellulaire HaCat, kératynocytes d'origine humaine, primoculture de kératinocytes humains • Modèle tissulaire : • Explants de peau normale provenant de déchet opératoire de chirurgie esthétique • Explants de gencive normale provenant de déchet opératoire de chirurgie implantatoire ou d'épithélium gingival reconstruit à partir de cellules épithéliales orales primaires • ➢ Les cellules HaCat sont ensemencées et cultivées en plaque 6 puits à 200 000 cellules/puits sous un volume de 2 ml de milieu de culture DMEM 1640 : (Ref: Invitrogen) complémenté par 10 % de sérum de veau foetal (SVF, Ref : CH30160.02 Perbio-Hyclone) pendant 18 h (sur la nuit). • ➢ A T0 les cellules sont lavées avec du tampon Phosphate (PBS, Ref: 52100-039 Invitrogen) puis privées en sérum pour les rendre quiescentes pendant 24 h (ralentissement de leur croissance et élimination de toute trace de facteurs susceptibles de perturber les effets induits par les traitements ultérieurs). • ➢ A T0+24 h les cellules sont traitées par des cytokines pro-inflammatoires (TNF-α à 10 ng/ml, IL1-β à 10 ng/ml) ou des éléments bactériens (LPS à 50 ng/ml, SEB à 100 ng/ml) ou des actifs potentiels de type « alkyle mono- ou di-ester d'α,β-butylglucoside » dilués dans du DMEM (1 ml/puits); La durée du traitement est de 3 h à 37°C. • ➢ Les kératinocytes primaires sont préparés à partir de peau normale provenant de déchet opératoire de chirurgie esthétique. Ils sont ensemencés et cultivés en plaque 24 puits à 60 000 cellules/puits sous un volume de 0,5 ml de milieu de culture KSFM (Ref : 37010 Invitrogen) complémenté par de l'EGF (Epidermal Growth Factor) à 1,5 ng/ml et du BPE (bovine pituitary extract) à 25 µg/ml pendant 24 h. • ➢ A J0, le milieu est remplacé par 0,5 ml de milieu KSFM complet, additionné de 1,2 nM de calcium. • ➢ A J+3, les cellules sont traitées par des cytokines pro-inflammatoires TNF-α et IL 1-β à 10 ng/ml ou des actifs potentiels de type « alkyle mono- ou di-ester d'α,β-butylglucoside » dilués dans 0,3 ml de milieu KSFM complet, en présence de 1,2 nM de calcium. […]

## laurate de butylglucoside [αβ-LBG brut]
  incubation time from which hBD-2 induction is effective: ≤ 1 h
30 µg/ml, in words
  synthèse des transcrits hBD-2: capable d'induire la synthèse des transcrits hBD-2
